Reference: patent US20220241276A1, “COMPOSITIONS AND METHODS FOR TREATING CANCER” (The Regents of the University of Michigan, priority 2019, published 2022)
Where “and” joins values, the source holds several entries; their conditions need not be identical. Identical values can stand only once. Like-named read-outs stand apart in the source and are kept apart here.

Legend:
[1] = test system: advanced adrenocortical carcinoma (ACC); assay: Phase 3 study (GALACCTIC; Fassnacht et al. Lancet Oncology 2015) of OSI-906/linsitinib vs placebo in patients with advanced adrenocortical carcinoma; format: in vivo, human; settings: prior trial, 6/90 patients, unselected
Source text: In some embodiments, the agent is an IGF1R inhibitor.
This includes 4 patients who achieved a partial response (PR) by RECIST criteria (Eisenhauer et al. Eur J. Cancer. 2009), and 2 patients who achieved long-term stable disease (SD; also by RECIST criteria, Eisenhauer et al. Eur J. Cancer. 2009).

[2] = test system: advanced adrenocortical carcinoma (ACC); settings: cited from earlier work
[3] = test system: adrenocortical carcinoma (ACC); settings: cited from earlier work
[4] = individual patients G-L, non-responders to OSI-906, per patient

C[C@]1(O)C[C@@H](c2nc(-c3ccc4ccc(-c5ccccc5)nc4c3)c3c(N)nccn32)C1 [OSI-906, linsitinib]
Response rate [1]: 6.7% | Patients with favorable response / treated patients ([2]; OSI-906-treated arm, unselected advanced ACC): 6/90 | Kaplan-Meier progression-free survival curves, linsitinib-treated vs placebo-treated ([2]; all patients of the trial): no statistical difference | Progression-free survival (days) ([2]; individual patients A-F, responders to OSI-906, per patient, '+' given after value): 169+ days and 504+ days and 525+ days and 205+ days and 433+ days and 440+ days | Best change from baseline in sum of target lesions (%) ([2]; individual patients A-F, responders to OSI-906, per patient): −50% and −45.625% and −45% and −5.882% and 0% and −78.46% | Best change from baseline in sum of target lesions (%) [2, 4]: 32.26% and 35.29% and 38.28% and 48.35% and 23.51% | Progression-free survival [2, 4]: 38 days and 41 days and 42 days (3×) and 48 days | Number of patients who achieved a partial response (PR) ([2]; of 90 OSI-906-treated patients, RECIST): 4 patients | Drug toxicities ([2]; patients with ACC): limited and manageable | Primary endpoint of the Phase 3 study ([2]; patients with ACC): failed to reach the primary endpoint | Progression-free survival of long-term durable responders ([2]; small subset of linsitinib-treated patients, not seen with placebo): > 150 days

Clc1ccc(C(c2ccccc2Cl)C(Cl)Cl)cc1 (centres unmarked) [mitotane]
Patients who recur during adjuvant therapy after surgery or progress during therapy for non-resectable disease ([3]; mitotane therapy): up to 90% | Efficacy ([3]; recent studies): only marginally effective | Toxicity ([3]; recent studies): highly toxic
